Test results from patent US8178506B2, “Oligomeric compounds and compositions for use in modulation of small non-coding RNAs” (Regulus Therapeutics Inc., priority 2003, dated 2012).
In the oligonucleotide strings, read from the 5' end, every base follows the letter of its sugar. An asterisk marks phosphorothioate; unmarked linkages are phosphodiester. Other units and linkages are bracketed, terminal groups are in braces. A string of capitals states the bases alone. e = 2'-O-(2-methoxyethyl) (MOE); [5mC] = 5-methylcytosine; d = 2'-deoxy (DNA)

Legend:
[1] = test system: mir-21 miRNA; assay: pGL3-mir-21 sensor luciferase assay in HeLa cells; type: cell-based, human; conditions: Table 44, pGL3-mir-21 sensor-expressing HeLa cells
Text: In order to assess the ability of miRNAs to bind predicted miRNA binding sites and regulate the expression of the luciferase reporter, in some embodiments, expression systems based on the pGL3-Control (Promega Corp., Madison Wis.) reporter vector and comprising either a mir-15a, mir-21, or a mir-23b miRNA binding site were developed and used in transient transfections of HeLa cells to determine whether the endogenous mir-15a, mir-21, or mir-23b miRNAs, respectively, could repress luciferase reporter gene expression.
The pGL3-mir-21 sensor plasmid was created by cloning the sequence ([…]; SEQ ID NO: 335), representing a sequence complementary to the mir-21 miRNA, into the Xba site of the pGL3-Control plasmid, placing the potential miRNA-binding site in the 3′UTR of the luciferase reporter. This reporter plasmid was used to transfect HeLa cells and it was observed that the endogenous mir-21 miRNA was able to inhibit luciferase expression from the pGL3-mir-21 sensor plasmid. Thus, to further evaluate the ability of the mir-21 miRNA to bind this target site encoded by the pGL3-mir-21 sensor plasmid, and to assess the ability of oligomeric compounds to interfere with mir-21-mediated silencing, pGL3-mir-21 sensor-expressing HeLa cells were treated with varying concentrations (10 nM or 50 nM) of the following oligomeric compounds: ISIS Number 327917 (SEQ ID NO: 335), a phosphorothioate uniform 2′-MOE oligomeric compound; ISIS Number 338697 ([…]; herein incorporated as SEQ ID NO: 524), a uniform 2′-MOE oligomeric compound targeting the mir-21 pri-miRNA molecule; and ISIS Number 328415 (SEQ ID NO: 524), a 2′-MOE 5-10-5 gapmer oligomeric compound targeting the mir-21 pri-miRNA. The uniform 2′-MOE phosphorothioate oligomeric compound ISIS Number 327901 (SEQ ID NO: 319) targeting an unrelated miRNA (mir-143) was used as a negative control. The data are the average of three trials and are presented in Table 44 as percent untreated control (luciferase plasmid only, not treated with oligomeric compound) luciferase expression, normalized to pRL-CMV levels.
In one embodiment, the oligomeric compounds ISIS Number 327917 (SEQ ID NO: 335), the phosphorothioate uniform 2′-MOE targeting mature mir-21; ISIS Number 358768 (SEQ ID NO: 918), the uniform 2′-MOE targeting the mir-21 pri-miRNA which stimulated the largest increase in pri-miRNA expression levels by real time quantitative RT-PCR; and ISIS Number 345382 (SEQ ID NO: 335), the 5-10-7 phosphorothioate 2′-MOE gapmer targeting mature mir-21 were selected for dose response studies in HeLa cells using the luciferase reporter system described in Example 27. ISIS Number 342683 (SEQ ID NO: 790), representing the scrambled nucleotide sequence of an unrelated PTP1B antisense oligonucleotide, was used as a negative control. HeLa cells expressing the pGL3-mir-21 sensor plasmid (described in Example 27) were treated with 1.9, 5.5, 16.7, and 50 nM of these oligomeric compounds, to assess the ability of oligomeric compounds to interfere with endogenous mir-21-mediated silencing of the pGL3-mir-21 sensor plasmid. The data are presented in Table 50 as percent untreated control (luciferase plasmid only, not treated with oligomeric compound) luciferase expression, normalized to pRL-CMV levels.

[2] = test system: T47D cells; assay: Caspase-3 activity assay (apoptosis) in T47D cells; conditions: T47D cells, 200 nM, 48 hours, relative to untreated control
[3] = test system: mir-15a pri-miRNA; assay: mir-15a pri-miRNA expression in HepG2 cells (real-time RT-PCR); type: cell-based, human; conditions: for Expression of mir-15a pri-miRNA (% UTC): HepG2 cells, 100 nM, real-time RT-PCR; for expression of the mir-15a pri-miRNA molecule: HepG2, 100 nM
Description: Using the real-time RT-PCR methods described in Example 19, the expression levels of the mir-15a pri-miRNA were compared in HepG2 cells treated with a nested series of chimeric gapmer oligomeric compounds, targeting and spanning the entire length of the mir-15a pri-miRNA; these compounds are shown in Table 45, below. […] All cytidine residues are 5-methylcytidines. Using the transfection methods described herein, HepG2 cells were treated with 100 nM of each of these gapmer oligomeric compounds. Total RNA was isolated from HepG2 cells by lysing cells in 1 mL TRIZOL™ (Invitrogen) using the manufacturer's recommended protocols. Real-time RT-PCR analysis was performed using a primer/probe set specific for the mir-15a pri-miRNA molecule to assess the effects of these compounds on expression of the mir-15a pri-miRNA molecule. ISIS 339317 ([…]; SEQ ID NO.: 885) was used as the forward primer, ISIS 339318 (TGGCCTGCACCTTTTCAAA; SEQ ID NO.: 886) was used as the reverse primer, and ISIS 339319 ([…]; SEQ ID NO.: 887) was used as the probe. Total RNA was quantified using RiboGreen™ RNA quantification reagent (Molecular Probes, Inc. Eugene, Oreg.), expression levels observed for each target are normalized to 5.8S rRNA, and values are expressed relative to the untreated control. Inhibition of expression of the mir15a pri-miRNA by these gapmer oligomeric compounds is expressed as a percentage of RNA levels in untreated control cells.

Substance	Expression of mir-15a pri-miRNA (% UTC) [3]	expression of the mir-15a pri-miRNA molecule [3]	other results
328415 (antisense eT*eG*e[5mC]*e[5mC]*eA*dT*dG*dA*dG*dA*dT*dT*d[5mC]*dA*dA*e[5mC]*eA*eG*eT*e[5mC]) [compound 328415]			luciferase expression % UTC ([1]; 10 nM): 66.0 % UTC; luciferase expression % UTC ([1]; 50 nM): 104.4 % UTC; Fold Increase over UTC (caspase activity) [2]: 1.1
338697 (antisense TGCCATGAGATTCAACAGTC; all 2'-MOE, all phosphorothioate, methylation of C not given here) [compound 338697]			luciferase expression % UTC ([1]; 10 nM): 87.0 % UTC; luciferase expression % UTC ([1]; 50 nM): 84.8 % UTC
347974 (eT*eG*eA*eG*eG*d[5mC]*dA*dG*d[5mC]*dA*d[5mC]*dA*dA*dT*dA*eT*eG*eG*e[5mC]*e[5mC]; antisense) [compound 347974]	98.1 % UTC		
347975 (eT*eT*eT*eT*eG*dA*dG*dG*d[5mC]*dA*dG*d[5mC]*dA*d[5mC]*dA*eA*eT*eA*eT*eG; antisense) [compound 347975]	9.2 % UTC		
347976 (eT*eA*eT*eT*eT*dT*dT*dG*dA*dG*dG*d[5mC]*dA*dG*d[5mC]*eA*e[5mC]*eA*eA*eT; antisense) [compound 347976]	73.0 % UTC		
347977 (eT*eT*eG*eT*eA*dT*dT*dT*dT*dT*dG*dA*dG*dG*d[5mC]*eA*eG*e[5mC]*eA*e[5mC]) [compound 347977]	111.3 % UTC		
347978 (eT*e[5mC]*e[5mC]*eT*eT*dG*dT*dA*dT*dT*dT*dT*dT*dG*dA*eG*eG*e[5mC]*eA*eG; antisense) [compound 347978]	51.1 % UTC		
347979 (eA*eG*eA*eT*e[5mC]*d[5mC]*dT*dT*dG*dT*dA*dT*dT*dT*dT*eT*eG*eA*eG*eG; antisense) [compound 347979]	74.9 % UTC		
347980 (eA*eG*eA*eT*e[5mC]*dA*dG*dA*dT*d[5mC]*d[5mC]*dT*dT*dG*dT*eA*eT*eT*eT*eT; antisense) [compound 347980]	3.6 % UTC		
347982 (eT*eT*e[5mC]*eA*eG*dA*dA*dG*dA*dT*d[5mC]*dA*dG*dA*dT*e[5mC]*e[5mC]*eT*eT*eG; antisense) [compound 347982]	82.2 % UTC		
347983 (eA*eA*eA*eT*eA*dT*dA*dT*dT*dT*dT*d[5mC]*dT*dT*d[5mC]*eA*eG*eA*eA*eG; antisense) [compound 347983]	13.0 % UTC		
ISIS 347964: 5-10-5 2′-MOE gapmer PS; targets mir-15a pri-miRNA (antisense eT*eA*eT*eA*eA*d[5mC]*dA*dT*dT*dG*dA*dT*dG*dT*dA*eA*eT*eA*eT*eG)		significant inhibition of expression of the mir-15a pri-miRNA molecule	
ISIS 347966: 5-10-5 2′-MOE gapmer PS; targets mir-15a pri-miRNA (antisense eT*eG*e[5mC]*eT*eA*d[5mC]*dT*dT*dT*dA*d[5mC]*dT*d[5mC]*d[5mC]*dA*eA*eG*eG*eT*eT)		significant inhibition of expression of the mir-15a pri-miRNA molecule	
ISIS 347967: 5-10-5 2′-MOE gapmer PS; targets mir-15a pri-miRNA (antisense eG*e[5mC]*eA*e[5mC]*e[5mC]*dT*dT*dT*dT*d[5mC]*dA*dA*dA*dA*dT*e[5mC]*e[5mC]*eA*e[5mC]*eA)		stimulate an increase in expression levels of the mir-15a pri-miRNA	
ISIS 347968: 5-10-5 2′-MOE gapmer PS; targets mir-15a pri-miRNA (antisense e[5mC]*e[5mC]*eT*eG*e[5mC]*dA*d[5mC]*d[5mC]*dT*dT*dT*dT*d[5mC]*dA*dA*eA*eA*eT*e[5mC]*e[5mC])		significant inhibition of expression of the mir-15a pri-miRNA molecule	
ISIS 347970: 5-10-5 2′-MOE gapmer PS; targets mir-15a pri-miRNA (antisense eA*eT*eA*eT*eG*dG*d[5mC]*d[5mC]*dT*dG*d[5mC]*dA*d[5mC]*d[5mC]*dT*eT*eT*eT*e[5mC]*eA)		significant inhibition of expression of the mir-15a pri-miRNA molecule	
ISIS 347973: 5-10-5 2′-MOE gapmer PS; targets mir-15a pri-miRNA (antisense eG*eG*e[5mC]*eA*eG*d[5mC]*dA*d[5mC]*dA*dA*dT*dA*dT*dG*dG*e[5mC]*e[5mC]*eT*eG*e[5mC])		stimulate an increase in expression levels of the mir-15a pri-miRNA	
ISIS 347975: 5-10-5 2′-MOE gapmer PS; targets mir-15a pri-miRNA (antisense eT*eT*eT*eT*eG*dA*dG*dG*d[5mC]*dA*dG*d[5mC]*dA*d[5mC]*dA*eA*eT*eA*eT*eG)		significant inhibition of expression of the mir-15a pri-miRNA molecule	
ISIS 347977: 5-10-5 2′-MOE gapmer PS; targets mir-15a pri-miRNA (antisense eT*eT*eG*eT*eA*dT*dT*dT*dT*dT*dG*dA*dG*dG*d[5mC]*eA*eG*e[5mC]*eA*e[5mC])		stimulate an increase in expression levels of the mir-15a pri-miRNA	
ISIS 347980: 5-10-5 2′-MOE gapmer PS; targets mir-15a pri-miRNA (antisense eA*eG*eA*eT*e[5mC]*dA*dG*dA*dT*d[5mC]*d[5mC]*dT*dT*dG*dT*eA*eT*eT*eT*eT)		significant inhibition of expression of the mir-15a pri-miRNA molecule	
ISIS 347983: 5-10-5 2′-MOE gapmer PS; targets mir-15a pri-miRNA (antisense eA*eA*eA*eT*eA*dT*dA*dT*dT*dT*dT*d[5mC]*dT*dT*d[5mC]*eA*eG*eA*eA*eG)		significant inhibition of expression of the mir-15a pri-miRNA molecule	
